Experimental data published in the NIST ThermoML archive (doi:10.1021/je060411g).
Numbers after ± are expanded uncertainties.

What was measured:
[1] = Molar enthalpy of transition or fusion

Molar enthalpy of transition or fusion ([1]; Crystal 1) [kcal/mol] | Glass transition temperature (Adiabatic calorimetry) [°C] | Molar enthalpy of transition or fusion ([1]; Crystal 2) [kcal/mol] | Triple point temperature (Crystal) [K] | Glass transition temperature [°C] | SMILES | Molar enthalpy of transition or fusion ([1]; Crystal 3) [kcal/mol] | Triple point temperature (Crystal 1) [K] | Triple point temperature (Crystal 2) [K] | Triple point temperature (Crystal 3) [K]
– | -155 ± 5 | – | – | – | CCC(C)CO (stereo not drawn) [2-methyl-1-butanol] | – | – | – | –
0.693 ± 0.0478 | – | 0.98 ± 0.0478 | – | – | CC(C)(C)CO [2,2-dimethyl-1-propanol] | – | 328.2 ± 0.4 | 233.3 ± 1 | –
0.397 ± 0.0478 | – | – | 203.2 ± 0.4 | -143 ± 5 | CCC(O)CC [3-pentanol] | – | – | – | –

SMILES | Molar enthalpy of transition or fusion ([1]; Crystal 1) [kcal/mol] | Glass transition temperature (Adiabatic calorimetry) [°C] | Molar enthalpy of transition or fusion ([1]; Crystal 2) [kcal/mol] | Triple point temperature (Crystal) [K] | Glass transition temperature [°C] | Molar enthalpy of transition or fusion ([1]; Crystal 3) [kcal/mol] | Triple point temperature (Crystal 1) [K] | Triple point temperature (Crystal 2) [K] | Triple point temperature (Crystal 3) [K]
CCC(C)(C)O [2-methylbutan-2-ol] | 0.478 ± 0.0478 | – | – | – | – | 0.215 ± 0.0239 | 264.7 ± 0.4 | 215 ± 1 | 145.8 ± 0.4
